Results: PubChem BioAssay (NCI)
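Five concentrations, 48 hours, 96-well plates. Here, GI50 denotes the concentration required for 50% inhibition of growth. TGI: total growth inhibition.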

test system: HOP-62 NSCLC; test: NCI-60 cell line screen, 48 h

| Compound | GI50 | TGI |
| --- | --- | --- |
| CNCc1cccc2c1OCCOCCOCCN(C)S(=O)(=O)c1ccc(cc1)-c1cnc(N)c(n1)C(=O)N2 | 1.77 µM | 4.04 µM |
| CN(C)c1ccc(/C=C(\NC(=O)c2ccccc2)C(=O)NC(CC(=O)O)C(=O)O)cc1 (centres undefined) |  | > 100 µM |
| COC(=O)[C@]1(C)CCC[C@@]2(C)C1CC[C@]13C=C(C(C)C)[C@H](CC21)CC3(Cl)C#N (some centres undefined) |  | > 100 µM |
| COc1ccc2c(c1)c(-c1nc(-c3c[nH]c4ncccc34)cs1)cn2CCCN1CCOCC1 | 2.24 µM | 7.18 µM |
| COC1OC(C)C(NC(=O)OCC(Cl)(Cl)Cl)C2OC(C)(C)OC12 (centres undefined) |  | > 100 µM |

test system: HOP-92 NSCLC; test: NCI-60 cell line screen, 48 h

| Compound | TGI | GI50 |
| --- | --- | --- |
| CN(C)c1ccc(/C=C(\NC(=O)c2ccccc2)C(=O)NC(CC(=O)O)C(=O)O)cc1 (centres undefined) | > 100 µM |  |
| COC(=O)[C@]1(C)CCC[C@@]2(C)C1CC[C@]13C=C(C(C)C)[C@H](CC21)CC3(Cl)C#N (some centres undefined) | > 100 µM |  |
| COc1ccc2c(c1)c(-c1nc(-c3c[nH]c4ncccc34)cs1)cn2CCCN1CCOCC1 | 6.82 µM | 2.42 µM |
| COC1OC(C)C(NC(=O)OCC(Cl)(Cl)Cl)C2OC(C)(C)OC12 (centres undefined) | > 100 µM |  |

test system: HS 578T breast; test: NCI-60 cell line screen, 48 h

| Compound | GI50 | TGI |
| --- | --- | --- |
| CNCc1cccc2c1OCCOCCOCCN(C)S(=O)(=O)c1ccc(cc1)-c1cnc(N)c(n1)C(=O)N2 | 0.663 µM | 3.64 µM |
| CN(C)c1ccc(/C=C(\NC(=O)c2ccccc2)C(=O)NC(CC(=O)O)C(=O)O)cc1 (centres undefined) |  | > 100 µM |
| COC(=O)[C@]1(C)CCC[C@@]2(C)C1CC[C@]13C=C(C(C)C)[C@H](CC21)CC3(Cl)C#N (some centres undefined) |  | > 100 µM |
| COc1ccc2c(c1)c(-c1nc(-c3c[nH]c4ncccc34)cs1)cn2CCCN1CCOCC1 | 2.08 µM | 6.92 µM |
| COC1OC(C)C(NC(=O)OCC(Cl)(Cl)Cl)C2OC(C)(C)OC12 (centres undefined) |  | > 100 µM |

test system: HT29 colon; test: NCI-60 cell line screen, 48 h

| Compound | GI50 | TGI |
| --- | --- | --- |
| CNCc1cccc2c1OCCOCCOCCN(C)S(=O)(=O)c1ccc(cc1)-c1cnc(N)c(n1)C(=O)N2 | 1.08 µM | 4.92 µM |
| CN(C)c1ccc(/C=C(\NC(=O)c2ccccc2)C(=O)NC(CC(=O)O)C(=O)O)cc1 (centres undefined) |  | > 100 µM |
| COC(=O)[C@]1(C)CCC[C@@]2(C)C1CC[C@]13C=C(C(C)C)[C@H](CC21)CC3(Cl)C#N (some centres undefined) |  | > 100 µM |
| COc1ccc2c(c1)c(-c1nc(-c3c[nH]c4ncccc34)cs1)cn2CCCN1CCOCC1 | 2.22 µM | 6.4 µM |
| COC1OC(C)C(NC(=O)OCC(Cl)(Cl)Cl)C2OC(C)(C)OC12 (centres undefined) |  | > 100 µM |

test system: IGROV1 ovarian; test: NCI-60 cell line screen, 48 h

| Compound | GI50 | TGI |
| --- | --- | --- |
| CNCc1cccc2c1OCCOCCOCCN(C)S(=O)(=O)c1ccc(cc1)-c1cnc(N)c(n1)C(=O)N2 | 0.58 µM | 12.8 µM |
| CN(C)c1ccc(/C=C(\NC(=O)c2ccccc2)C(=O)NC(CC(=O)O)C(=O)O)cc1 (centres undefined) |  | > 100 µM |
| COC(=O)[C@]1(C)CCC[C@@]2(C)C1CC[C@]13C=C(C(C)C)[C@H](CC21)CC3(Cl)C#N (some centres undefined) |  | > 100 µM |
| COc1ccc2c(c1)c(-c1nc(-c3c[nH]c4ncccc34)cs1)cn2CCCN1CCOCC1 | 2.09 µM | 8.69 µM |
| COC1OC(C)C(NC(=O)OCC(Cl)(Cl)Cl)C2OC(C)(C)OC12 (centres undefined) |  | > 100 µM |

test system: K-562 leukemia; test: NCI-60 cell line screen, 48 h

| Compound | GI50 | TGI |
| --- | --- | --- |
| CNCc1cccc2c1OCCOCCOCCN(C)S(=O)(=O)c1ccc(cc1)-c1cnc(N)c(n1)C(=O)N2 | 0.622 µM | 10.3 µM |
| CN(C)c1ccc(/C=C(\NC(=O)c2ccccc2)C(=O)NC(CC(=O)O)C(=O)O)cc1 (centres undefined) |  | 33.3 µM |
| COC(=O)[C@]1(C)CCC[C@@]2(C)C1CC[C@]13C=C(C(C)C)[C@H](CC21)CC3(Cl)C#N (some centres undefined) |  | > 100 µM |
| COc1ccc2c(c1)c(-c1nc(-c3c[nH]c4ncccc34)cs1)cn2CCCN1CCOCC1 | 2.08 µM | 4.95 µM |
| COC1OC(C)C(NC(=O)OCC(Cl)(Cl)Cl)C2OC(C)(C)OC12 (centres undefined) |  | > 100 µM |

test system: KM12 colon; test: NCI-60 cell line screen, 48 h

| Compound | GI50 | TGI |
| --- | --- | --- |
| CNCc1cccc2c1OCCOCCOCCN(C)S(=O)(=O)c1ccc(cc1)-c1cnc(N)c(n1)C(=O)N2 | 2.29 µM | 14.6 µM |
| CN(C)c1ccc(/C=C(\NC(=O)c2ccccc2)C(=O)NC(CC(=O)O)C(=O)O)cc1 (centres undefined) |  | > 100 µM |
| COC(=O)[C@]1(C)CCC[C@@]2(C)C1CC[C@]13C=C(C(C)C)[C@H](CC21)CC3(Cl)C#N (some centres undefined) |  | > 100 µM |
| COc1ccc2c(c1)c(-c1nc(-c3c[nH]c4ncccc34)cs1)cn2CCCN1CCOCC1 | 2.41 µM | 6.88 µM |
| COC1OC(C)C(NC(=O)OCC(Cl)(Cl)Cl)C2OC(C)(C)OC12 (centres undefined) |  | > 100 µM |

test system: LOX IMVI melanoma; test: NCI-60 cell line screen, 48 h

| Compound | GI50 | TGI |
| --- | --- | --- |
| CNCc1cccc2c1OCCOCCOCCN(C)S(=O)(=O)c1ccc(cc1)-c1cnc(N)c(n1)C(=O)N2 | 1.05 µM | 3.23 µM |
| CN(C)c1ccc(/C=C(\NC(=O)c2ccccc2)C(=O)NC(CC(=O)O)C(=O)O)cc1 (centres undefined) |  | > 100 µM |
| COc1ccc2c(c1)c(-c1nc(-c3c[nH]c4ncccc34)cs1)cn2CCCN1CCOCC1 | 1.74 µM | 3.27 µM |

test system: M14 melanoma; test: NCI-60 cell line screen, 48 h

| Compound | GI50 | TGI |
| --- | --- | --- |
| CNCc1cccc2c1OCCOCCOCCN(C)S(=O)(=O)c1ccc(cc1)-c1cnc(N)c(n1)C(=O)N2 | 1.11 µM | 3.4 µM |
| CN(C)c1ccc(/C=C(\NC(=O)c2ccccc2)C(=O)NC(CC(=O)O)C(=O)O)cc1 (centres undefined) |  | > 100 µM |
| COC(=O)[C@]1(C)CCC[C@@]2(C)C1CC[C@]13C=C(C(C)C)[C@H](CC21)CC3(Cl)C#N (some centres undefined) |  | > 100 µM |
| COc1ccc2c(c1)c(-c1nc(-c3c[nH]c4ncccc34)cs1)cn2CCCN1CCOCC1 | 1.77 µM | 3.58 µM |
| COC1OC(C)C(NC(=O)OCC(Cl)(Cl)Cl)C2OC(C)(C)OC12 (centres undefined) |  | > 100 µM |

test system: MALME-3M melanoma; test: NCI-60 cell line screen, 48 h

| Compound | GI50 | TGI |
| --- | --- | --- |
| CNCc1cccc2c1OCCOCCOCCN(C)S(=O)(=O)c1ccc(cc1)-c1cnc(N)c(n1)C(=O)N2 | 1.53 µM | 3.72 µM |
| COC(=O)[C@]1(C)CCC[C@@]2(C)C1CC[C@]13C=C(C(C)C)[C@H](CC21)CC3(Cl)C#N (some centres undefined) |  | 89.7 µM |
| COc1ccc2c(c1)c(-c1nc(-c3c[nH]c4ncccc34)cs1)cn2CCCN1CCOCC1 | 1.39 µM | 3.14 µM |
| COC1OC(C)C(NC(=O)OCC(Cl)(Cl)Cl)C2OC(C)(C)OC12 (centres undefined) |  | > 100 µM |

test system: MCF7 breast; test: NCI-60 cell line screen, 48 h

| Compound | GI50 | TGI |
| --- | --- | --- |
| CNCc1cccc2c1OCCOCCOCCN(C)S(=O)(=O)c1ccc(cc1)-c1cnc(N)c(n1)C(=O)N2 | 0.0566 µM | 17.9 µM |
| CN(C)c1ccc(/C=C(\NC(=O)c2ccccc2)C(=O)NC(CC(=O)O)C(=O)O)cc1 (centres undefined) |  | > 100 µM |
| COC(=O)[C@]1(C)CCC[C@@]2(C)C1CC[C@]13C=C(C(C)C)[C@H](CC21)CC3(Cl)C#N (some centres undefined) |  | > 100 µM |
| COc1ccc2c(c1)c(-c1nc(-c3c[nH]c4ncccc34)cs1)cn2CCCN1CCOCC1 | 1.43 µM | 8.83 µM |
| COC1OC(C)C(NC(=O)OCC(Cl)(Cl)Cl)C2OC(C)(C)OC12 (centres undefined) |  | > 100 µM |

test system: MDA-MB-231 breast; test: NCI-60 cell line screen, 48 h

| Compound | GI50 | TGI |
| --- | --- | --- |
| CNCc1cccc2c1OCCOCCOCCN(C)S(=O)(=O)c1ccc(cc1)-c1cnc(N)c(n1)C(=O)N2 | 2.28 µM | 6.44 µM |
| CN(C)c1ccc(/C=C(\NC(=O)c2ccccc2)C(=O)NC(CC(=O)O)C(=O)O)cc1 (centres undefined) |  | > 100 µM |
| COC(=O)[C@]1(C)CCC[C@@]2(C)C1CC[C@]13C=C(C(C)C)[C@H](CC21)CC3(Cl)C#N (some centres undefined) |  | > 100 µM |
| COc1ccc2c(c1)c(-c1nc(-c3c[nH]c4ncccc34)cs1)cn2CCCN1CCOCC1 | 1.86 µM | 4.54 µM |
| COC1OC(C)C(NC(=O)OCC(Cl)(Cl)Cl)C2OC(C)(C)OC12 (centres undefined) |  | > 100 µM |

test system: MDA-MB-435; test: NCI-60 cell line screen, 48 h

| Compound | GI50 | TGI |
| --- | --- | --- |
| CNCc1cccc2c1OCCOCCOCCN(C)S(=O)(=O)c1ccc(cc1)-c1cnc(N)c(n1)C(=O)N2 | 1.28 µM | 2.69 µM |
| CN(C)c1ccc(/C=C(\NC(=O)c2ccccc2)C(=O)NC(CC(=O)O)C(=O)O)cc1 (centres undefined) |  | > 100 µM |
| COC(=O)[C@]1(C)CCC[C@@]2(C)C1CC[C@]13C=C(C(C)C)[C@H](CC21)CC3(Cl)C#N (some centres undefined) |  | > 100 µM |
| COc1ccc2c(c1)c(-c1nc(-c3c[nH]c4ncccc34)cs1)cn2CCCN1CCOCC1 | 1.75 µM | 3.37 µM |
| COC1OC(C)C(NC(=O)OCC(Cl)(Cl)Cl)C2OC(C)(C)OC12 (centres undefined) |  | > 100 µM |

test system: MOLT-4 leukemia; test: NCI-60 cell line screen, 48 h

| Compound | GI50 | TGI |
| --- | --- | --- |
| CNCc1cccc2c1OCCOCCOCCN(C)S(=O)(=O)c1ccc(cc1)-c1cnc(N)c(n1)C(=O)N2 | 0.41 µM | 11.8 µM |
| CN(C)c1ccc(/C=C(\NC(=O)c2ccccc2)C(=O)NC(CC(=O)O)C(=O)O)cc1 (centres undefined) |  | > 100 µM |
| COC(=O)[C@]1(C)CCC[C@@]2(C)C1CC[C@]13C=C(C(C)C)[C@H](CC21)CC3(Cl)C#N (some centres undefined) |  | > 100 µM |
| COc1ccc2c(c1)c(-c1nc(-c3c[nH]c4ncccc34)cs1)cn2CCCN1CCOCC1 | 1.85 µM | 4.4 µM |
| COC1OC(C)C(NC(=O)OCC(Cl)(Cl)Cl)C2OC(C)(C)OC12 (centres undefined) |  | > 100 µM |

test system: NCI-H226 lung; test: NCI-60 cell line screen, 48 h

| Compound | GI50 | TGI |
| --- | --- | --- |
| CNCc1cccc2c1OCCOCCOCCN(C)S(=O)(=O)c1ccc(cc1)-c1cnc(N)c(n1)C(=O)N2 | 2.76 µM | 6.92 µM |
| CN(C)c1ccc(/C=C(\NC(=O)c2ccccc2)C(=O)NC(CC(=O)O)C(=O)O)cc1 (centres undefined) |  | > 100 µM |
| COC(=O)[C@]1(C)CCC[C@@]2(C)C1CC[C@]13C=C(C(C)C)[C@H](CC21)CC3(Cl)C#N (some centres undefined) |  | 75.4 µM |
| COc1ccc2c(c1)c(-c1nc(-c3c[nH]c4ncccc34)cs1)cn2CCCN1CCOCC1 | 3.1 µM | 15.9 µM |
